A short description of one data set: in vivo. The following applies: male, dog, in vivo, iv, 3 mg/kg, mean AUC(0-102 h). How it is done:
In Example 10, the pharmacokinetics of the compound of Formula I in dogs following single intravenous and oral administration was evaluated and the oral bioavailability of five different salts of the compound of Formula I was compared. The compound of Formula I was administered to dogs as described in Table 12. The doses are expressed in mg of free base.
The experiments were performed in 15 male dogs (bodyweight 11-18 kg) from RCC Ltd., Biotechnology and Animal Breeding Division, Wolferstrasse 4, CH-4414, Fullinsdorf, Switzerland. The animals were housed under standard laboratory conditions throughout the study period.
For the pharmacokinetic studies, 1 mL blood samples were collected from the cephalic vein of the dogs via catheter at 15, 30 min and at 1, 2, 3, 4, 6, 8, 24, 32, 48, 56, 72, 80, 96, and 100 (or 104) hours following oral dosing. After intravenous administration, blood samples were collected at 5, 15, 30 min and 1, 2, 3, 4, 6, 8, 24, 32, 48, 56, 75, 102, 120, 128, 144, 152, 168, 176, 192, and 200 hours. Collection tubes contained EDTA/NaF as anticoagulant and stabilizer. After centrifugation, plasma was removed and stored deep frozen at approximately −20° C. until analysis using a specific LC-MS method.
Aliquots of 40 μL plasma were mixed with 50 μL buffer at pH 5, 50 μL internal standard of Formula I (1 μg/mL in 1-chlorobutane) and 250 μL butylacetate and then shaken for 10 min. After centrifugation, 200 μL of the supernatant were evaporated to dryness at 45° C. under a stream of nitrogen. The residue was reconstituted with 200 μL acetonitrile/1% formic acid in water (30/70, v/v). Aliquots of 30 μL were injected onto the analytical column (Waters, Symmetry C8, 2.1×150 mm, 5 μm).
Separation occurred by gradient elution using a solvent A (acetonitrile) and solvent B (1% formic acid in water). The flow rate was 0.3 mL/min and the gradient elution was: […]
The sample passed to the ion-spray interface of the single quadrupole mass spectrometer. Selected ion monitoring mode (SIM) was used for mass spectrometric detection. Quantification was based on peak area ratios and calibration curve established between 2 and 5000 ng/mL.
To a 100 μL sample aliquot were added 200 μL of a mixture of acetonitrile/ethanol containing the deuterated internal standard, to precipitate plasma proteins. After vortex mixing and centrifugation, aliquots of the supernatants were transferred to 96-deel-well plates and injected for analysis (5 μL). Following enrichment and cleanup on the trapping column, the analyte was eluted and separated by gradient elution on a 2.1*30 mm analytical column (XTerra MS C18). The effluent from the analytical column was passed to the turbo ion spray vie a divert valve.
Calibration standards were prepared in dog plasma. The calibration range was from 10-5000 ng/mL. In each analytical series, a set of calibration standards was worked up and run with the unknowns. Calibration was then performed by computing a weighted (1/X^2) least-squares linear regression line of the measured peak area ratios (Y) (analyte to internal standard) versus the spiked concentrations (X). The drug concentrations of the unknown samples were then calculated from this regression line (UNICHROM). The performance of the analytical procedure during sample analysis was monitored. With each analytical series, quality control (QC) samples in dog plasma, spiked with known amounts of the analyte, were run together with the study samples.
The pharmacokinetic parameters were estimated by non-compartmental analysis, using the pharmacokinetic evaluation program WinNOnlin [1]. AUC(0-inf.) was calculated applying the linear trapezoidal rule and extrapolation to infinity using the apparent elimination rate constant kz and the calculated concentration at the last measurable time point. AUClast values were calculated by linear trapezoidal rule from time zero to time of last measureable time point.

Data set [1] in a line: Pilot whole body autoradiography study in rats. It counts as in vivo.

What is called AUC(0-t) is the area under the concentration-time curve up to a stated or last time point. Low readings indicate less exposure, high ones more exposure.

Turning to `Cc1ccccc1-c1cc(N2CCN(C)CC2)ncc1N(C)C(=O)C(C)(C)c1cc(C(F)(F)F)cc(C(F)(F)F)c1` [Formula I, 2-(3,5-bis(trifluoromethyl)phenyl)-N,2-dimethyl-N-(6-(4-methylpiperazin-1-yl)-4-(o-tolyl)pyridin-3-yl)propanamide], the AUC(0-t) in the data set “in vivo” was determined as 11800 ng·h/mL. The “distribution and elimination of the labeled compound and/or metabolites” value in data set [1] is reported as “extensive distribution of the labeled compound and/or metabolites as well as a very slow elimination from the body”.

The values are drawn from patent publication US10676440B2, “Crystalline forms of an NK-1 antagonist” (Helsinn Healthcare SA, priority 2014, dated 2020).
